Data reported in ChEMBL document CHEMBL1130633, “Beta-analogs of PLG (L-prolyl-L-leucyl-glycinamide): ex-chiral pool syntheses and dopamine D2 receptor modulating effects” (Bioorg Med Chem Lett, 1998).
Where a SMILES comes first, the peptide text is derived from it.

Each molecule was assayed against D(2) dopamine receptor (Bos taurus) (UniProt P20288) (assay: Compound was evaluated for its ability to enhance the binding of the dopamine receptor agonist [3H]pramipexole to Dopamine receptor D2 at a concentration of 10E-9 M).
Chain of D(2) dopamine receptor (Bos taurus) (P20288 whole entry): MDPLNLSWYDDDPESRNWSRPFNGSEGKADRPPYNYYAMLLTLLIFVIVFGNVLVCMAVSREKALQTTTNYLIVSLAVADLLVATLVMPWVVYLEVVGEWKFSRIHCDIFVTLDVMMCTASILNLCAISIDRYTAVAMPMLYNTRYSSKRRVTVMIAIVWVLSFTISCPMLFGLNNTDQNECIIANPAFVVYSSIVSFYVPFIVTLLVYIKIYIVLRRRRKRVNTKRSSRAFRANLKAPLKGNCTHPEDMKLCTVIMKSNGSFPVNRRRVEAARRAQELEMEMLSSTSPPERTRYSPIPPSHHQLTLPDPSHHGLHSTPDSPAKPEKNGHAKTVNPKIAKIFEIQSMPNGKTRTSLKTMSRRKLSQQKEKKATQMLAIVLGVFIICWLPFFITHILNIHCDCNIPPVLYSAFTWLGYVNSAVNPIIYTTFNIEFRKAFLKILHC

SMILES	Binding [%]
CC(C)C[C@H](NC(=O)[C@@H]1CCCN1)C(=O)NCC(N)=O (H-Pro-Leu-Gly-NH2)	109
CC(C)C[C@H](NC(=O)[C@H]1CNC[C@H]1Cc1ccccc1)C(=O)NCC(N)=O	99.6
CC(C)C[C@H](NC(=O)[C@H]1CNC[C@@H]1Cc1ccccc1)C(=O)NCC(N)=O	109
CC(C)C[C@H](NC(=O)[C@@H]1CNC[C@H]1Cc1ccccc1)C(=O)NCC(N)=O	108
CC(C)C[C@H](NC(=O)[C@H]1CCNC1)C(=O)NCC(N)=O	107
CC(C)C[C@H](NC(=O)[C@@H]1CCNC1)C(=O)NCC(N)=O	104
CC(C)C[C@H](NC(=O)[C@@H]1CNC[C@@H]1Cc1ccccc1)C(=O)NCC(N)=O	104
